Assay results as given in patent US12667582B2, “Composition containing 2′-FL for ameliorating, preventing or treating diseases caused by reduction of dopamine” (priority 2022, dated 2026).

Assays:
[1] = system: dopaminergic neuron culture from ventral mesencephalon tissue; experiment: 6-OHDA-mediated dopaminergic degeneration in primary ventral mesencephalon neuron culture (tyrosine hydroxylase immunocytochemistry); format: cell-based, Sprague-Dawley rats; conditions: 6-OHDA 100 μM alone, 48 hours, FIG. 2
Protocol: Dopaminergic neuron culture was prepared from ventral mesencephalon tissue of E14-E15 embryos obtained from pregnant Sprague-Dawley rats. Specifically, the dissected ventral brain tissue was pooled and agitated for 15 minutes at 37° C. to separate the cells in pre-warmed trypsin EDTA (025%) and then the cells were washed with DMEM (Dulbecco's modified Eagle medium)/F12 culture medium. After washing, essential growth factors were added thereto, followed by culturing. 50% of the culture medium was replaced with fresh culture medium on the 3rd and 5th days of culture and the result was allowed to stand. From the 7th day of culture, antioxidant factors were excluded.
In addition, on the 10th day of culture, the neurotoxic substances 6-OHDA and 6-OHDA+2′-FL were added to the cells. After 48 hours, the cells were immobilized using 4% PFA (paraformaldehyde; Sigma-Aldrich) (FIG. 1). FIG. 1 illustrates the timeline of an in vitro experiment.
The viability rate of dopamine cells was determined from the immobilized cells using immunocytochemistry using tyrosine hydroxylase. Six samples were used for each group. The composition of each group is shown in Table 1 below and the number of cells was 1×10^6 which was constant for each group.

[2] = system: TH (+) cells in the substantia nigra; experiment: Tyrosine hydroxylase (TH) immunohistochemistry of dopaminergic neurons in substantia nigra; format: in vivo, mouse; conditions: 6-OHDA HBr injected into left striatum; top of FIG. 6
Protocol: The mouse was anesthetized with chloral hydrate (400 mg/kg, ip) and fixed in a stereotaxic frame. 6-OHDA HBr (276 μg/μl×5 μl) was injected through a Hamilton microsyringe into two left striatum sites (1 mm AP, […] relative to bregma and […] and 1 mm AP, […] relative to bregma and […]) for 4 minutes (Day 0). Then, the mouse recovered from anesthesia was maintained at body temperature in a 37° C. incubator for 2 hours.
2′-FL (500 μM×20 μl) and saline (control; 20 μl) were injected into the nose from days 0 to 28. To determine whether or not Parkinson's disease was induced and to observe behavioral changes, methamphetamine was administered to […] and behavioral changes were observed on days 7, 21, and 28, respectively (FIG. 3). FIG. 3 illustrates the timeline of an in vivo experiment.
After the rotation test, the animals were slaughtered and brain tissue was removed therefrom (Veh, n=5; 2′-FL, n=4). The distribution of dopaminergic neurons was measured by immunohistochemistry using tyrosine hydroxylase (TH).
Specifically, the entire brain was sectioned to a thickness of 25 μm using a cryosection machine. […] The brain tissue was bound with a secondary antibody (concentration 1:500) and then was attached to a glass slide and expression was observed using a fluorescence microscope.

## NCCc1cc(O)c(O)cc1O [6-OHDA]
[1]
  decrease in dopamine cells compared to the normal cell group: caused a severe decrease in dopamine cells
[2]
  number of TH (+) cells in the substantia nigra after the toxin: significantly reduced
